# Assay results taken from paper PMC7011974, “Benzimidazole derivatives endowed with potent antileishmanial activity” (Journal of Enzyme Inhibition and Medicinal Chemistry, 2017).
# Where two headings read alike, the source gives them in different places.
# Key:
# L. tropica promastigotes = test: Antileishmanial activity on L. tropica promastigotes (MTT); assay type: cell-based, Leishmania tropica; conditions: for IC50: Leishmania tropica; for Ratio IC50 miltef./IC50 compd., L. tropica: fold potency versus miltefosine; for IC50 amph. B ×100/IC50 compd., L. tropica: percent of amphotericin B potency, calculated for each experiment
# [1] = system: L. infantum promastigotes; test: Antileishmanial activity on L. infantum promastigotes (MTT); assay type: cell-based, Leishmania infantum; conditions: for IC50: Leishmania infantum; for Ratio IC50 miltef./IC50 compd., L. infantum: fold potency versus miltefosine; for IC50 amph. B ×100/IC50 compd., L. infantum: percent of amphotericin B potency, calculated for each experiment; for Fold more potent than miltefosine against L. infantum, taking the lowest literature IC50 (15 μM): miltefosine IC50 15 μM from literature
# [2] = system: monkey kidney (Vero76) cells; test: Cytotoxicity on Vero-76 cells (crystal violet); conditions: selectivity index, Vero76
# [3] = Cytotoxicity on Vero-76 cells (crystal violet); conditions: monkey, Vero-76 cells
# [4] = system: human microvascular endothelial cell line (HMEC-1); test: Cytotoxicity on HMEC-1 cells (MTT); assay type: cell-based; conditions: for IC50: Homo sapiens, cytotoxicity, HMEC-1 cells, MTT; for Selectivity index (SI) range versus HMEC cells: range over L. tropica and L. infantum; for SI L. infantum (IC50 HMEC-1/IC50 L. infantum) / SI L. tropica (IC50 HMEC-1/IC50 L. tropica): selectivity index
# L. major (promastigotes) = system: L. major (promastigotes); parameters: method as in PMID 20430484, PMID 15183913, PMID 18486471; conditions: Figure 3; cited from earlier work
# [5] = system: intramacrophagic amastigote stage of L. infantum; test: In vitro intracellular amastigote susceptibility assay in THP-1 macrophages; assay type: cell-based, Leishmania infantum
# Experimental: (b) In vitro intracellular amastigote susceptibility assays. […] Cell monolayers were then washed and incubated with compounds for 72 h. Slides were fixed with methanol and stained with Giemsa. The percentage of infected macrophages in treated and non-treated cells was determined by light microscopy.
# [6] = 72 h, promastigotes, MTT, 72 h, starred values mean of two experiments, read-out: IC50 (µM) L. tropica
# [7] = promastigotes, MTT, 72 h, read-out: IC50 (µM) L. infantum
SMILES,IC50 (L. tropica promastigotes; [6]),"IC50 amph. B ×100/IC50 compd., L. tropica (L. tropica promastigotes)","IC50 [1, 7]","IC50 amph. B ×100/IC50 compd., L. infantum [1]","Ratio IC50 miltef./IC50 compd., L. tropica (L. tropica promastigotes)","Ratio IC50 miltef./IC50 compd., L. infantum [1]",SI L. infantum (IC50 Vero76/IC50 L. infantum) [2],SI L. tropica (IC50 Vero76/IC50 L. tropica) [2],IC50 [3],IC50 [4],SI L. infantum (IC50 HMEC-1/IC50 L. infantum) [4],SI L. tropica (IC50 HMEC-1/IC50 L. tropica) [4],further results
CC(=O)c1ccc2c(c1)nc(Cc1ccc(Cl)cc1)n2C[C@@H]1CCCN2CCCC[C@H]12 [Compound 30],12.1 ± 4.06 µM,1.46,15.9 ± 3.21 µM,1.32,3.6,2.0,>6.30,>8.24,> 100 µM,–,–,–,–
COc1ccc(-c2nc3cc(C(F)(F)F)ccc3n2CCN(C)C)cc1 [Compound 26],29.6 ± 0.3 µM,0.60,> 55 µM,–,1.5,–,–,>3.37,> 100 µM,–,–,–,Antileishmanial activity in words (L. tropica promastigotes; promastigotes of L. tropica and/or L. infantum): moderately active
FC(F)(F)c1ccc2c(c1)nc(-c1ccccc1)n2C[C@@H]1CCCN2CCCC[C@H]12 [Compound 35],7.31 ± 2.75 µM,2.42,12.1 ± 1.82 µM,1.73,5.9,2.6,7.44,12.3,90 µM,–,–,–,–
COc1ccc(-c2nc3cc(C(F)(F)F)ccc3n2C[C@@H]2CCCN3CCCC[C@H]23)cc1 [Compound 38],6.54 ± 0.18 µM,2.71,11.2 ± 1.33 µM,1.86,6.6,2.8,6.68,11.47,75 µM,–,–,–,–

# Second part, led by results:
IC50 (L. tropica promastigotes; [6]),"IC50 amph. B ×100/IC50 compd., L. tropica (L. tropica promastigotes)","IC50 [1, 7]","IC50 amph. B ×100/IC50 compd., L. infantum [1]",SMILES,"Ratio IC50 miltef./IC50 compd., L. tropica (L. tropica promastigotes)","Ratio IC50 miltef./IC50 compd., L. infantum [1]",SI L. infantum (IC50 Vero76/IC50 L. infantum) [2],SI L. tropica (IC50 Vero76/IC50 L. tropica) [2],IC50 [3],IC50 [4],SI L. infantum (IC50 HMEC-1/IC50 L. infantum) [4],SI L. tropica (IC50 HMEC-1/IC50 L. tropica) [4],further results
0.46 µM,17.9,0.27 ± 0.01 µM,–,"CCCCCCCCCCCc1n(C)c2ccccc2[n+]1CCC.[I-] [Compound 4, 1-Methyl-3-propyl-2-undecyl-1 H-benzimidazol-3-ium iodide]",94.0,–,9.63,5.65,2.6 µM,2.01 ± 0.24 µM,7.44,4.37,"Selectivity index (SI) range versus HMEC cells [4]: 2.3–7.4; Fold more potent than miltefosine against L. infantum, taking the lowest literature IC50 (15 μM) [1]: 55 fold; melting point: 140.2 to 145 °C"
0.113 ± 0.03 µM,100,0.135 ± 0.03 µM,100,"C[C@@H]1[C@H](O)[C@@H](C)/C=C/C=C/C=C/C=C/C=C/C=C/C=C/[C@H](O[C@@H]2O[C@H](C)[C@@H](O)[C@H](N)[C@@H]2O)C[C@@H]2O[C@](O)(C[C@@H](O)C[C@@H](O)[C@H](O)CC[C@@H](O)C[C@@H](O)CC(=O)O[C@H]1C)C[C@H](O)[C@H]2C(=O)O [Amph. B, amphotericin B, reference compound]",–,–,–,–,–,25.7 ± 1.9 µM,190.4,227.4,"IC50 (L. tropica promastigotes; range of values across experiments, read-out: IC50 range over many different experiments, L. tropica): 0.082 to 0.177 µM; IC50 ([1]; range of values across experiments, read-out: IC50 range over many different experiments, L. infantum): 0.094 to 0.209 µM; IC50 (L. major (promastigotes)): 610 nM"
0.19 ± 0.06 µM,–,0.34 ± 0.12 µM,27.8,"CCCCCCCCCCCCCCCc1n(C)c2ccccc2[n+]1C.[I-] [Compound 8, 1,3-Dimethyl-2-pentadecyl-1 H-benzimidazol-3-ium iodide]",–,–,–,–,5.8 µM,0.78 ± 0.06 µM,2.29,4.10,"Selectivity index (SI) range versus HMEC cells [4]: 2.3–7.4; Fold more potent than miltefosine against L. infantum, taking the lowest literature IC50 (15 μM) [1]: 43 fold; melting point: 169 to 172 °C; Fold increased potency with respect to miltefosine, amastigotes ([5]; L. infantum amastigotes in THP-1): 3.35 fold; IC50 ([5]; Leishmania infantum, THP-1 macrophages, 72 h, read-out: IC50 against intramacrophagic amastigote stage of L. infantum): 313 nM"
